Experimental data from patent US7795263B2, “Pharmaceutical combination for and method of anesthetizing and immobilizing non-domesticated mammals” (Wildlife Laboratories, Inc., priority 2008, dated 2010).

System: captive white-tailed deer (Odocoileus virginianus)
Assay: BAM-1 / BAM-2 in captive white-tailed deer with NTA antagonist reversal (Example 4)
Type: in vivo
Settings: adult male not recovered after BAM-2 and NTA-1
Experimental: BAM was administered to captive white-tailed deer (Odocoileus virginianus) at two dose levels (BAM-1 and BAM-2) in an approved-protocol study, to evaluate efficacy, quality of anesthesia, and quality of recovery following administration of tolazoline, atipamezole, and naltrexone antagonists.
The deer of the study were housed in large (0.4-0.8 ha) forested outdoor pens and were fed 17% protein ration with fresh hay and water available ad libitum. The average ambient temperature at time of immobilization and anesthesia was 14.4° C. Temperatures ranged from −1.7 to 25.6° C. […]
Immediately after BAM injection, each deer was released into a 15×20 m observation pen where the time to first noticeable drug effect (e.g., stumbling, gait changes) was recorded, the sternal time (when deer collapsed without rising again) was recorded, the lateral time (when deer lowered head and became immobile) was recorded, and the approachable time (when deer remained immobile and seemed oblivious to its surroundings) was recorded. […]
The heart rate (determined by auscultation), respiration rate (determined by thoracic movements), rectal temperature, and hemoglobin saturation level were recorded at 0, 10, and 20 minutes after recumbency. […] Heart rate readings from pulse oximetry were compared to heart rates as determined by auscultation. […]

c1ccc(CC2=NCCN2)cc1 [tolazoline]
effect of subsequent IM injection of 250 mg tolazoline: led to recovery from anesthesia, with minimal ataxia
